Results on 14 compounds are retold here after patent US8952157B2, “Apoptosis-inducing agents for the treatment of cancer and immune and autoimmune diseases” (AbbVie Inc., priority 2008, dated 2015).

In general, Ki refers to a dissociation constant, usually derived from enzyme kinetics or from competition with a known ligand. Lower therefore signals higher affinity.

This test has as its target GST-Bcl-2 (Homo sapiens (Human), UniProt P10415). The experiment in a line: Time Resolved-Fluorescence Resonance Energy Transfer (TR-FRET) Bcl-2 binding assay. In short, it runs like this: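 Competition TR-FRET: GST-Bcl-2 with fluorescent Bak peptide probe and Tb-anti-GST antibody, compounds serially diluted from 50 μM (2× start, 10% DMSO).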
Setting [1] is: GST-Bcl-2 1 nM, F-Bak peptide probe 100 nM, Tb-anti-GST antibody 1 nM, Ki by Wang's equation.

Read-outs that look alike come from different tables or passages of the source.

Chain of GST-Bcl-2 (P10415 whole entry): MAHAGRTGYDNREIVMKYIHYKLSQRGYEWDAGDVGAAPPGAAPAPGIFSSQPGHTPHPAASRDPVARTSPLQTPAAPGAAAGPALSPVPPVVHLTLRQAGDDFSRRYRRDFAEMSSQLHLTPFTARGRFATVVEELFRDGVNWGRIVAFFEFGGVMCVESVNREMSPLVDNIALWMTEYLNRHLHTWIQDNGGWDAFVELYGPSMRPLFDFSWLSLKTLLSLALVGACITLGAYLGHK

`Cn1ccc2c(Oc3cc(N4CCN(Cc5ccccc5-c5ccc(Cl)cc5)CC4)ccc3C(=O)NS(=O)(=O)c3ccc(NCCCN4CCOCC4)c([N+](=O)[O-])c3)cccc21` [Example 68, 4-(4-((4′-chloro-1,1′-biphenyl-2-yl)methyl)piperazin-1-yl)-2-((1-methyl-1H-indol-4-yl)oxy)-N-((4-((3-morpholin-4-ylpropyl)amino)-3-nitrophenyl)sulfonyl)benzamide]: under setting [1], affinity was put at a Ki of 5.93 nM.
The same measure, in the same setting: the value for `CC1(C)CCC(CN2CCN(c3ccc(C(=O)NS(=O)(=O)c4ccc(NCC5CCC(O)CC5)c([N+](=O)[O-])c4)c(Oc4cnc(N)c(Cl)c4)c3)CC2)=C(c2ccc(Cl)cc2)C1` (centres unmarked) [Example 386, 2-[(6-amino-5-chloropyridin-3-yl)oxy]-4-(4-{[2-(4-chlorophenyl)-4,4-dimethylcyclohex-1-en-1-yl]methyl}piperazin-1-yl)-N-[(4-{[(4-hydroxycyclohexyl)methyl]amino}-3-nitrophenyl)sulfonyl]benzamide] was less than 0.01 nM; that for `CN1CCC(Nc2ccc(S(=O)(=O)NC(=O)c3ccc(N4CCN(CC5=C(c6ccc(Cl)cc6)CC(C)(C)OC5)CC4)cc3Oc3cccc(Cl)c3)cc2[N+](=O)[O-])CC1` [Example 144, 2-(3-chlorophenoxy)-4-(4-{[4-(4-chlorophenyl)-6,6-dimethyl-5,6-dihydro-2H-pyran-3-yl]methyl}piperazin-1-yl)-N-({4-[(1-methylpiperidin-4-yl)amino]-3-nitrophenyl}sulfonyl)benzamide] was 0.028 nM; that for `O=C(NS(=O)(=O)c1ccc(NCCCN2CCOCC2)c([N+](=O)[O-])c1)c1ccc(N2CCN(Cc3ccccc3-c3ccc(Cl)cc3)CC2)cc1Oc1ccc(-c2ccncc2)cc1` [Example 99, 4-(4-((4′-chloro-1,1′-biphenyl-2-yl)methyl)piperazin-1-yl)-N-((4-((3-morpholin-4-ylpropyl)amino)-3-nitrophenyl)sulfonyl)-2-(4-pyridin-4-ylphenoxy)benzamide] was 71.4 nM.
`CC1(C)CCC(CN2CCN(c3ccc(C(=O)NS(=O)(=O)c4ccc(NC5CCN(C6CCOCC6)CC5)c([N+](=O)[O-])c4)c(Oc4cc5cc[nH]c5cc4Cl)c3)CC2)=C(c2ccc(Cl)cc2)C1` [Example 242, 2-[(6-chloro-1H-indol-5-yl)oxy]-4-(4-{[2-(4-chlorophenyl)-4,4-dimethylcyclohex-1-en-1-yl]methyl}piperazin-1-yl)-N-({3-nitro-4-[(1-tetrahydro-2H-pyran-4-ylpiperidin-4-yl)amino]phenyl}sulfonyl)benzamide] had a Ki under setting [1] of 0.092 nM.
`CO[C@H]1CC[C@H](CNc2ccc(S(=O)(=O)NC(=O)c3ccc(N4CCN(CC5=C(c6ccc(Cl)cc6)CC(C)(C)CC5)CC4)cc3Oc3ccc(NCC(F)F)nc3)cc2[N+](=O)[O-])CC1` [Example 375, Trans-4-(4-{[2-(4-chlorophenyl)-4,4-dimethylcyclohex-1-en-1-yl]methyl}piperazin-1-yl)-2-({6-[(2,2-difluoroethyl)amino]pyridin-3-yl}oxy)-N-[(4-{[(4-methoxycyclohexyl)methyl]amino}-3-nitrophenyl)sulfonyl]benzamide] registered a Ki of 328 nM.
`CC1(C)CCC(CN2CCN(c3ccc(C(=O)NS(=O)(=O)c4ccc(N[C@H]5CC[C@H](N6CCOCC6)CC5)c([N+](=O)[O-])c4)c(Oc4cccc5c4CC(=O)N5)c3)CC2)=C(c2ccc(Cl)cc2)C1` [Example 320, Trans-4-(4-{[2-(4-chlorophenyl)-4,4-dimethylcyclohex-1-en-1-yl]methyl}piperazin-1-yl)-N-({4-[(4-morpholin-4-ylcyclohexyl)amino]-3-nitrophenyl}sulfonyl)-2-[(2-oxo-2,3-dihydro-1H-indol-4-yl)oxy]benzamide] came in with a Ki of 0.028 nM.
`O=C(NS(=O)(=O)c1ccc(NCC2CCOCC2)c([N+](=O)[O-])c1)c1ccc(N2CCN(Cc3ccccc3-c3ccc(Cl)cc3)CC2)cc1Oc1cccc([N+](=O)[O-])c1` [Example 8, 4-(4-((4′-chloro-1,1′-biphenyl-2-yl)methyl)piperazin-1-yl)-2-(3-nitrophenoxy)-N-((3-nitro-4-((tetrahydro-2H-pyran-4-ylmethyl)amino)phenyl)sulfonyl)benzamide] returned a Ki under setting [1] of 3.45 nM.
Compound `CN1CCC(Nc2ccc(S(=O)(=O)NC(=O)c3ccc(N4CCN(CC5=C(c6ccc(Cl)cc6)CC(C)(C)CC5)CC4)cc3Oc3cc(Cl)ccc3Cl)cc2[N+](=O)[O-])CC1` [Example 60, 4-(4-((2-(4-chlorophenyl)-4,4-dimethylcyclohex-1-en-1-yl)methyl)piperazin-1-yl)-2-(2,5-dichlorophenoxy)-N-((4-((1-methylpiperidin-4-yl)amino)-3-nitrophenyl)sulfonyl)benzamide] yielded a Ki under setting [1] of 0.187 nM.
Take `CC1(C)CCC(CN2CCN(c3ccc(C(=O)NS(=O)(=O)c4ccc(N[C@H]5CCCN(C6CCOCC6)C5)c([N+](=O)[O-])c4)c(Oc4cc5cc[nH]c5cc4F)c3)CC2)=C(c2ccc(Cl)cc2)C1` [Example 329, 4-(4-{[2-(4-chlorophenyl)-4,4-dimethylcyclohex-1-en-1-yl]methyl}piperazin-1-yl)-2-[(6-fluoro-1H-indol-5-yl)oxy]-N-[(3-nitro-4-{[(3S)-1-tetrahydro-2H-pyran-4-ylpiperidin-3-yl]amino}phenyl)sulfonyl]benzamide]: the Ki under setting [1] worked out at 0.108 nM.
The same measure, in the same setting: the value for `CN1CCC(Nc2ccc(S(=O)(=O)NC(=O)c3ccc(N4CCN(CC5=C(c6ccc(Cl)cc6)CC(C)(C)CC5)CC4)cc3Oc3ccc(Cl)c(Cl)c3)cc2[N+](=O)[O-])CC1` [Example 164, 4-(4-{[2-(4-chlorophenyl)-4,4-dimethylcyclohex-1-en-1-yl]methyl}piperazin-1-yl)-2-(3,4-dichlorophenoxy)-N-({4-[(1-methylpiperidin-4-yl)amino]-3-nitrophenyl}sulfonyl)benzamide] was 0.056 nM; that for `CC1(C)CCC(CN2CCN(c3ccc(C(=O)NS(=O)(=O)c4ccc(NCC5CCOCC5)c([N+](=O)[O-])c4)c(Oc4cc(N)ncc4Br)c3)CC2)=C(c2ccc(Cl)cc2)C1` [Example 395, 2-[(2-amino-5-bromopyridin-4-yl)oxy]-4-(4-{[2-(4-chlorophenyl)-4,4-dimethylcyclohex-1-en-1-yl]methyl}piperazin-1-yl)-N-({3-nitro-4-[(tetrahydro-2H-pyran-4-ylmethyl)amino]phenyl}sulfonyl)benzamide] was 0.077 nM; that for `Cc1nc2cc(Oc3cc(N4CCN(Cc5ccccc5-c5ccc(Cl)cc5)CC4)ccc3C(=O)NS(=O)(=O)c3ccc(NCC4CCOCC4)c([N+](=O)[O-])c3)ccc2s1` [Example 90, 4-(4-((4′-chloro-1,1′-biphenyl-2-yl)methyl)piperazin-1-yl)-2-((2-methyl-1,3-benzothiazol-5-yl)oxy)-N-((3-nitro-4-((tetrahydro-2H-pyran-4-ylmethyl)amino)phenyl)sulfonyl)benzamide] was 10.6 nM.
Under setting [1], `CC1(C)CCC(CN2CCN(c3ccc(C(=O)NS(=O)(=O)c4cnc(OC5CCN(C6CCOCC6)CC5)c(C#N)c4)c(Oc4cc5cc[nH]c5cc4F)c3)CC2)=C(c2ccc(Cl)cc2)C1` [Example 325, 4-(4-{[2-(4-chlorophenyl)-4,4-dimethylcyclohex-1-en-1-yl]methyl}piperazin-1-yl)-N-({5-cyano-6-[(1-tetrahydro-2H-pyran-4-ylpiperidin-4-yl)oxy]pyridin-3-yl}sulfonyl)-2-[(6-fluoro-1H-indol-5-yl)oxy]benzamide] came in with a Ki of 0.183 nM.
